We go through 17 compounds from ChEMBL document CHEMBL1135343, “Glutathione-like tripeptides as inhibitors of glutathionylspermidine synthetase. Part 2: substitution of the glycine part” (Bioorg Med Chem Lett, 2002).

The term inhibition denotes the relative decrease from the control value, in per cent. Usually IC50 stands for the concentration at which inhibition is half-maximal. What is called Ki is the equilibrium dissociation constant of an inhibitor or competing ligand from its target.

Values joined by “and” are separate entries in the source; they are usually repeats but may differ in a detail not shown here. Equal entries are not always repeated. Numbered stars: 1 amine (or outer) side, 2 acyl side, 3 side chain; on linkers, the order of the positions; unused ones are H or OH. Square brackets hold non-standard residues; d marks the D form. Peptide text beside a SMILES is read from it. γGlu = O=C(O)[C@H](CCC(=O)[*:2])N[*:1]; Orn = NCCC[C@H](N)C(=O)O; Dab = NCC[C@H](N)C(=O)O; Nva = CCC[C@H](N)C(=O)O; Dap = NC[C@H](N)C(=O)O

Test [1] deals with T1, Glutathionylspermidine synthase (Crithidia fasciculata) (UniProt P90518).
T1 sequence (whole entry): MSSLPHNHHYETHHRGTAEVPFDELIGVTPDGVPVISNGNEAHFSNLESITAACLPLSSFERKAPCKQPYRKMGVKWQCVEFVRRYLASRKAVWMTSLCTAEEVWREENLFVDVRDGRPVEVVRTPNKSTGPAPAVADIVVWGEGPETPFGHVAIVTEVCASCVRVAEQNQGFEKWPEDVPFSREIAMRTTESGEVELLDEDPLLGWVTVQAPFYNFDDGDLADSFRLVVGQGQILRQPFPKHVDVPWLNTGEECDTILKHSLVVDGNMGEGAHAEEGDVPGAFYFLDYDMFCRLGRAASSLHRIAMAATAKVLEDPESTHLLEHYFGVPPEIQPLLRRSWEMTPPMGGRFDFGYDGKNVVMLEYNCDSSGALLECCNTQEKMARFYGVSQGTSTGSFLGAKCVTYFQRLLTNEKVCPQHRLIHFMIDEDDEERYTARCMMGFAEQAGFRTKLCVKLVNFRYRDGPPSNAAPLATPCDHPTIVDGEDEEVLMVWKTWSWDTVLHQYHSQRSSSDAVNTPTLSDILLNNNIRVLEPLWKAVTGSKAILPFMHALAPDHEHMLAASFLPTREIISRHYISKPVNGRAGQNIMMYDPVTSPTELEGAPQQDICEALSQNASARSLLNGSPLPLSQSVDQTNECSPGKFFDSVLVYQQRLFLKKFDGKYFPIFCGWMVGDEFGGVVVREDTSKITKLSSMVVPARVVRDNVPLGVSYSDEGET
Nature of the test: (§1) Tested against glutathionylspermidine synthetase (GspS) in Crithidia fasciculata. Also noted: concentration or dose not given beside the values. The following applies: concentration not given here.

Test [2] has as its target T2, Glutathionylspermidine synthase (Crithidia fasciculata, UniProt P90518).
T2 sequence (P90518 whole entry): T1 sequence (whole entry)
The description is as §1.

Test [3] deals with T2, Glutathionylspermidine synthase. As to the kind of experiment: Inhibitory constant against glutathionylspermidine synthetase (GspS) in Crithidia fasciculata.

Take `CC(C)C[C@H](NC(=O)CC[C@H](N)C(=O)O)C(=O)N[C@@H](CCCCN)C(=O)O` (γGlu-Leu-Lys-OH): the inhibition in test [1] is 93%. For the same compound, half-maximal inhibition in test [2] (IC50) was put at 18 µM. For the same compound, the Ki in test [3] is 27 µM and 48 µM.

Take `CCCC[C@H](NC(=O)[C@H](CC(C)C)NC(=O)CC[C@H](N)C(=O)O)C(=O)O`: in test [1], the inhibition came out at 53%.

Take `CC(C)C[C@H](NC(=O)CC[C@H](N)C(=O)O)C(=O)N[C@@H](CCCCNCCCCN)C(=O)O`: in test [1], the inhibition turned out to be 94%. The IC50 in test [2] came out at 27.9 µM. Further, in test [3], the Ki was 32 µM and 86 µM.

In the case of `CC(C)C[C@H](NC(=O)CC[C@H](N)C(=O)O)C(=O)N[C@@H](CC(N)=O)C(=O)O` (γGlu-Leu-Asn-OH), the inhibition in test [1] is 68%. The 50% inhibitory concentration (IC50) in test [2] came out at 142 µM.

Regarding `CC(C)C[C@H](NC(=O)CC[C@H](N)C(=O)O)C(=O)N[C@@H](C)C(=O)O` (γGlu-Leu-Ala-OH), the inhibition in test [1] turned out to be 87%. Moreover, the IC50 in test [2] worked out at 90 µM.

For `CC(C)C[C@H](NC(=O)CC[C@H](N)C(=O)O)C(=O)N[C@@H](CCN)C(=O)O` (γGlu-Leu-[Dab]-OH), in test [1], the inhibition was determined as 95%. Also, in test [2], the IC50 came out at 13.7 µM. Besides, the Ki in test [3] is 10.4 µM and 24 µM.

Turning to `CC(C)C[C@H](NC(=O)CC[C@H](N)C(=O)O)C(=O)NCC(=O)O` (γGlu-Leu-Gly-OH), the inhibition in test [1] came out at 0%.

For `CCC[C@H](NC(=O)[C@H](CC(C)C)NC(=O)CC[C@H](N)C(=O)O)C(=O)O` (γGlu-Leu-[Nva]-OH), the inhibition in test [1] amounted to 70%. This compound also had an IC50 in test [2] of 145 µM.

In test [1], `CC(C)C[C@H](NC(=O)CC[C@H](NC(=O)OC(C)(C)C)C(=O)OC(C)(C)C)C(=O)N[C@@H](CCCCNCCCNC(=O)OC(C)(C)C)C(=O)O` yielded an inhibition of 62%. The IC50 in test [2] is 157 µM.

In test [1], `CC(C)C[C@H](NC(=O)CC[C@H](N)C(=O)O)C(=O)N[C@@H](CC(=O)O)C(=O)O` (γGlu-Leu-Asp-OH) returned an inhibition of 69%. In addition, in test [2], the IC50 was 156 µM.

In turn, `CC(C)C[C@H](NC(=O)CC[C@H](N)C(=O)O)C(=O)N[C@@H](CCCCNCCCN)C(=O)O` returned an inhibition in test [1] of 93%. The IC50 in test [2] came out at 23 µM. Further, the Ki in test [3] was 33 µM and 59 µM.

In test [1], `CC(C)C[C@H](NC(=O)CC[C@H](N)C(=O)O)C(=O)N[C@@H](CCC(=O)O)C(=O)O` (γGlu-Leu-Glu-OH) displayed an inhibition of 60%. The IC50 in test [2] is 227 µM.

In turn, `CC(C)C[C@H](NC(=O)CC[C@H](N)C(=O)O)C(=O)N[C@@H](CN)C(=O)O` (γGlu-Leu-[Dap]-OH) came in with an inhibition in test [1] of 97%. Also, the IC50 in test [2] was determined as 9.1 µM. Besides, the Ki in test [3] was 7.2 µM and 21 µM.

As to `CC(C)C[C@H](NC(=O)CC[C@H](N)C(=O)O)C(=O)N[C@@H](CCCN)C(=O)O` (γGlu-Leu-[Orn]-OH), the inhibition in test [1] worked out at 95%. Moreover, the half-inhibitory concentration (IC50) in test [2] worked out at 10.3 µM. Also, the Ki in test [3] was 10 µM and 39 µM.

In test [1], `CC(C)C[C@H](NC(=O)CC[C@H](N)C(=O)O)C(=O)N[C@@H](CO)C(=O)O` (γGlu-Leu-Ser-OH) showed an inhibition of 94%. In test [2], this compound had an IC50 of 11.7 µM. Moreover, in test [3], the inhibition constant (Ki) is 14 µM and 25 µM.

`CC(C)C[C@H](NC(=O)[C@H](CC(C)C)NC(=O)CC[C@H](N)C(=O)O)C(=O)O` gave an inhibition in test [1] of 59%. This compound gave an IC50 in test [2] of 365 µM.

Turning to `CC(C)C[C@H](NC(=O)CC[C@H](N)C(=O)O)C(=O)N[C@@H](CCCN=C(N)N)C(=O)O`, the inhibition in test [1] came to 95%. In test [2], inhibition was half-maximal at 9.4 µM (IC50). For the same compound, the inhibition constant Ki in test [3] was 6.4 µM and 17 µM.
